Like-named read-outs stand apart in the source and are kept apart here. Marks after values point to notes of the source that are not given here.
Key:
[1] = Surface tension and CMC, Fisher tensiometer, du Noüy ring method; format: physicochemical; set-up: γ CMC (surface tension at CMC): unit not given here; conditions: pH 7.0; synthetic samples
Description: Biosurfactants are molecules that can associate with each other leading to the formation of micelles. They can also interact with surfaces between phases of different polarity such as the air/water or oil/water interface.[77] To gain quantitative insights into the surface-active properties of microbial glycolipids, the surface tensions at CMC (γCMC) of ananatoside A (1) and ananatoside B (2) were measured using a Fisher tensiometer by means of the du Noüy ring method. The CMC, referring to the concentration of surfactant at which micelles start to form, was determined from a plot of surface tension again each concentration. […] Consequently, the surface tension measurements were performed quickly to avoid the precipitation of ananatoside A (1) into the aqueous medium.

[2] = Emulsifying activity against hydrocarbon contaminants; format: physicochemical; conditions: cyclohexane and kerosene
Description: Therefore, the emulsifying properties of microbial biosurfactants 1–3 were evaluated against light as well as heavy hydrocarbon contaminants such as cyclohexane and kerosene, respectively (see Fig. S7 ^†).

tomato leaf disks = assay: Extracellular ROS production, luminol chemiluminescence; format: cell-based, Solanum lycopersicum; conditions: 100 μM, monitored over 720 min
Excerpt: Bacterial rhamnolipids, such as compound 3, trigger the plant immune system, which can ultimately lead to plant protection against diseases caused by fungal and bacterial pathogens.[23] As ananatoside A (1) and ananatoside B (2) share structural similarities with rhamnolipid 3 and because they have been isolated from P. ananatis cultures, an emerging plant pathogen causing important agricultural damage worldwide,[81] we wanted to investigate whether these bacterial glycolipids, along with our unprecedented series of synthetic rhamnolactones, could be perceived by the plant immune system. We relied on measuring the extracellular content of reactive oxygen species (ROS) produced by tomato plants (Solanum lycopersicum) following treatment with the synthetic compounds, as an early and important marker of plant immunity.[20,22,82] Tomato leaves were challenged with synthetic glycolipids 1–6 at concentrations of 100 μM and the production of ROS was monitored over a 720 min time frame (Fig. 5).
Fig. 5 Extracellular reactive oxygen species (ROS) production following treatment of tomato leaf disks with ananatoside A (1), ananatoside B (2), RhaC10C10 (3), and related macrodilactone-containing rhamnolipids (4–6). Production of ROS was measured in tomato leaf disks following treatment at 100 μM with synthetic glycolipids (1–6). MeOH (0.5%) was used as a control. ROS production was measured using the chemiluminescence of luminol and photon counts were expressed as relative luminescence units (RLUs). Data are mean ± SEM (n = 6). Experiments were independently realized three times with similar results. […]
Plant Material and Growth Conditions. Tomato plants (Solanum lycopersicum L var. Ailsa craig, Scotland) were grown on soil in growth chamber with white fluorescent light [200 μmol•(m−2 s−1)], under 16 h/8 h light/dark regime, 60% relative humidity , and a temperature of 24 /20 °C during four weeks prior treatment. Arabidopsis thaliana plants (ecotype Col -0) were grown on soil in growth chambers with white fluorescent light (150 μmol m−2 s−1), under 12 h/12 h light/dark regime, 60% relative humidity, and a temperature of 20/20 °C during six weeks prior treatment.
Reactive Oxygen Species (ROS) Production. ROS assays were performed on four-week old tomato plants or six-week old Arabidopsis plants. Briefly, tomato leaf disks of 6 mm diameter or Arabidopsis petiole sections of 5 mm long were cut and placed in a 96-well plate (Optiplate TM-96 white, PerkinElmer) containing 150 µL of distilled H2O and then incubated at rt for 24 h to reduce the wounding response.11 The elicitation solution containing 0.2 µg•mL−1 luminol (A4685-5 g, Sigma), […] (P6782, Sigma) and the tested glycolipids (1, 2, 3, 4, 5α, 5β, 6α or 6β) at 100 μM was prepared. Methanol (0.5%) was used as negative control. Prior elicitation, the incubating distilled H2O was carefully removed from each well, avoiding any tissue damage or desiccation. Then, the elicitation solution (150 µL) was quickly added to each well containing a leaf disk or a petiole. Luminescence (relative light units, RLU) was measured every 4

[3] = Cytotoxicity, resazurin assay; format: cell-based, human; conditions: human, max tested 200 μM
Description: (§1) As the anticancer potential of microbial rhamnolipids has previously been reported,[16] we next sought to evaluate the in vitro cytotoxicity of our synthetic and natural glycolipids 1–6 against cancerous cell lines, i.e., human lung carcinoma (A549) and colorectal adenocarcinoma (DLD-1). The compounds were also tested against human normal skin fibroblasts (WS1) to estimate their selectivity towards cancer cells.
(§2) 4. Experimental Procedures for Biological Evaluation and Surfactant Properties. […]
(§3) Cell Culture. Human lung carcinoma (A549), human colorectal adenocarcinoma (DLD-1), and human normal skin fibroblasts (WS1) cell lines were obtained from the American Type Culture Collection (ATCC). All cell lines were cultured in minimum essential medium containing Earle’s […]
(§4) salts and L-glutamine (Mediatech Cellgro, VA), to which were added 10% foetal bovine serum (Hyclone), vitamins (1×), penicillin (100 IU•mL-1), streptomycin (100 µg•mL−1), essential amino acids (1×), and sodium pyruvate (1×) (Mediatech Cellgro, VA). Cells were kept at 37 °C in a humidified environment containing 5% CO2.
(§5) Cytotoxicity Assay. Exponentially growing A549, DLD-1 or WS1 cells were plated in 96-well microplates (Costar, Corning Inc.) at a density of 5 × 10^3 cells per well in 100 µL of culture medium and were allowed to adhere for 16 h prior treatment. Increasing concentrations of each compound in biotech DMSO (Sigma-Aldrich) were then added (100 µL per well) and the cells were incubated for 48 h. The final concentration of DMSO in the culture medium was maintained at 0.5% (v/v) to avoid solvent toxicity. Cytotoxicity was assessed using resazurin9 on an automated 96-well Fluoroskan Ascent F1TM plate reader (Labsystems) using excitation and emission wavelengths of 530 and 590 nm, respectively. Fluorescence was proportional to the cellular metabolic activity in each well. Survival percentage was defined as the fluorescence in experimental wells as compared to that in control wells after subtraction of blank values. Each experiment was carried out three times in triplicate. IC50 results were expressed as means ± standard deviation. […]

[4] = Dynamic light scattering (Zetasizer), hydrodynamic diameter of micelles; format: physicochemical; conditions: pH 7.0; concentration 80 μM
Excerpt: In parallel to these experiments, we took advantage of dynamic light scattering (DLS) to evaluate the hydrodynamic diameter of biosurfactant micelles formed at concentrations above the CMC (Table 4).[79] DLS considers the intensity of light scattered by spherical particles, which prevents its application for highly polydisperse and non-spherical colloidal systems. […] Once again, due to its hydrophobicity, ananatoside A (1) was too polydisperse for conducting a proper distribution analysis, showing a Z-average value above 800 nm, which meant that the particles were aggregated in water at the tested concentration. Similar results were obtained for ananatoside A (1) when the DLS experiments were conducted in DMSO as the solvent.

[5] = Cytotoxicity, resazurin assay, summary over cell lines; format: cell-based; conditions: human, DLD-1 and WS1 cells (summary over the three lines); A549, DLD-1 and WS1; read-out: Cytotoxicity IC50 against human cell lines
Description: as §1, §2, §3, §4, §5

[6] = set-up: method as in PMID 17105155; conditions: estimated; cited from earlier work
sheep blood erythrocytes = assay: Hemolytic activity; format: cell-based
Description: Owing to their surfactant properties, glycolipids can break the membrane of red blood cells causing hemolytic activity.[18] To understand if the cytotoxicity of macrolactones 1, 4, 5β, and 6β was due to their surface tension activity, we evaluated the hemolytic potential of synthetic glycolipids 1–6 against sheep erythrocytes (Table 5). […] The non-cytotoxic rhamnolipid 3 was also found to exert a weak hemolytic activity (HC50 = 65 ± 6 μM). […]
Hemolytic Activity. The hemolytic activity of the synthetic surfactants was evaluated as previously described with small modifications.10 Defibrinated sheep blood (Oxoid) was centri fuged at 1000 × g for 5 min. The pellet containing erythrocytes was washed once and suspended in 1X PBS to obtain a 1% erythrocytes suspension. All samples were suspended in DMSO/PBS (5:1 v/v) and serially diluted in a 96 -well plate to obtain a range of co ncentrations from 1 mM to 7.8 µM.
The erythrocytes suspension (160 µL) was added to 40 µL of samples to obtain final concentrations […]
ranging between 200 µM and 1.56 µM. Triton X-100 was used as a positive hemolysis control.
The plate was then incubated at 37 °C with agitation at 150 rpm for 1 h and centrifuged at 1500 × g for 5 min. The supernatant was transferred in an empty plate and absorbance was measured at 540 nm using a Cytation3 microplate reader (Biotek). HC50 was calculated in comparison with the positive control. The experiment was performed in triplicate and repeated three times. […]

[7] = test system: human colorectal adenocarcinoma (DLD-1); assay: Cytotoxicity, resazurin assay; format: cell-based; conditions: 48 h, max tested 200 μM
Description: as §1, §2, §3, §4, §5

[8] = test system: human normal skin fibroblasts (WS1); assay: Cytotoxicity, resazurin assay; format: cell-based; conditions: 48 h, max tested 200 μM
Description: as §1, §2, §3, §4, §5

[9] = test system: human lung carcinoma (A549); assay: Cytotoxicity, resazurin assay; format: cell-based; conditions: 48 h, max tested 200 μM
Description: as §1, §2, §3, §4, §5

[10] = DLD-1 colorectal adenocarcinoma cells
[11] = sheep blood erythrocytes, 1 h, 37 °C, max tested 200 μM

Row | Molecule | Extracellular ROS production (tomato leaf disks) | IC50 at 48 h ([3]; A549 lung carcinoma cells) [µM] | IC50 at 48 h [3, 10] [µM] | IC50 at 48 h ([3]; WS1 normal skin fibroblasts) [µM] | IC50 at 48 h [5] [µM] | Hemolysis (HC50 in μM) Erythrocytes (sheep blood erythrocytes; [11]) | also measured
1 | CCCCCCC[C@H](CC(=O)O)OC(=O)C[C@@H](CCCCCCC)O[C@@H]1O[C@@H](C)[C@H](O)[C@@H](O)[C@H]1O [Compound 3, RhaC10C10] | triggered a long-lasting and strong production of ROS | > 200 | > 200 | > 200 | > 200 | 65 ± 6 µM | CMC (critical micelle concentration) [1]: 58 ± 1 µM; γ CMC (surface tension at CMC) [1]: 30 ± 1; Emulsifying activity [2]: equally able to generate emulsions with cyclohexane and kerosene; Z-Average (hydrodynamic diameter of micelles) [4]: 92.1 nm; pKa [6]: 5.5
2 | CCCCCCCC1CC(=O)OC2C(C)OC(OC(CCCCCCC)CC(=O)O1)C(O)C2O (stereo not shown) [Compound 4] |  | 56 ± 2 | 70 ± 10 | 57 ± 1 | 50 to 112 | 12.0 ± 0.7 µM | 
3 | CCCCCCCC1CC(=O)OC2C(OC(CCCCCCC)CC(=O)O1)OC(C)C(O)C2O (stereo not drawn) [Compound 5α] | did not show a similar sensing pattern | > 200 | > 200 | > 200 |  | >200 ^d μM | 
4 | CCCCCCCC1CC(=O)OC2C(OC(CCCCCCC)CC(=O)O1)OC(C)C(O)C2O (stereo not drawn) [Compound 5β] | induced a strong and long-lasting production of ROS following the initial burst at 200 min |  |  |  | 50 to 112 | 14 ± 2 µM | IC50 [7]: 110 ± 2 µM; IC50 [8]: 105 ± 5 µM; IC50 [9]: 103 ± 7 µM
5 | CCCCCCCC1CC(=O)OC2C(O)C(C)OC(OC(CCCCCCC)CC(=O)O1)C2O (stereo not drawn) [Compound 6α] |  |  |  |  |  | >200 ^d μM | IC50 [7]: > 200 µM; IC50 [8]: > 200 µM; IC50 [9]: > 200 µM
6 | CCCCCCCC1CC(=O)OC2C(O)C(C)OC(OC(CCCCCCC)CC(=O)O1)C2O (stereo not drawn) [Compound 6β] |  | 112 ± 2 | 112 ± 3 | 110 ± 1 | 50 to 112 | 12.3 ± 0.5 µM | 
7 | COc1cc([C@@H]2c3cc4c(cc3[C@@H](O[C@@H]3O[C@@H]5CO[C@@H](C)O[C@H]5[C@H](O)[C@H]3O)[C@H]3COC(=O)[C@H]23)OCO4)cc(OC)c1O [Etoposide, reference compound] |  | 1.2 | 27 | 34 |  |  | 
8 | Triton X-100 [reference compound] |  |  |  |  |  |  | Hemolysis (HC50 in μM) Erythrocytes (sheep blood erythrocytes): c Half maximal inhibitory concentration measured on sheep blood erythrocytes. Triton X-100 was used as a positive control showing an HC50 value of 52 ± 2 μM.

From article PMC8171317, “Total synthesis, isolation, surfactant properties, and biological evaluation of ananatosides and related macrodilactone-containing rhamnolipids” (Chemical Science, 2021)
